According to patent publication US6630165B2, “Methods for providing effective reboxetine therapy with once-a-day dosing” (priority 1999, dated 2003):

Key:
[1] = reboxetine elimination half-life and time to steady state; type: in vivo; conditions: about four elimination half lives after initiation of continuous intermittent dosing
Experimental: Generally, continuous dosing for a period equal to about four elimination half lives is required to obtain steady-state conditions. Accordingly, steady-state conditions are approached at approximately 52 hours following initiation of a continuous intermittent dosing regimen. Mean steady-state plasma reboxetine concentrations following dosing every 24 hours with 4 mg doses of reboxetine methanesulfonate in two different sustained release dosage forms, having T90 values of about 9 hours and about 18 hours, respectively, and following dosing every 12 hours with 2 mg doses of reboxetine methanesulfonate (total daily dose=4 mg) in an immediate release dosage form for a period of four days (96 hours) were simulated.

[2] = in vivo; cited from earlier work

- time at which steady-state conditions are approached [1]: approximately 52 hours
Compound: CCOc1ccccc1OC(c1ccccc1)C1CNCCO1 (stereo not drawn) [Reboxetine, 2-[α(2-ethoxyphenoxy)benzyl]morpholine]
- elimination half-life (t1/2) [2]: about 13 hours
